Reference: patent publication US20190127381A1, “SUBSTITUTED FUSED PYRIMIDINONE COMPOUNDS” (TORRENT PHARMACEUTICALS LIMITED, priority 2016, published 2019)

What was measured:
[1] = target: T1, purified recombinant human PI3K enzyme δ (Homo sapiens, UniProt O00329); assay: Inhibition of PI3-Kinase enzymatic activity (HTRF enzyme assay), δ; assay type: biochemical; conditions: 1 μM compound; PI3K δ 50 ng/well; PIP2 10 μM; ATP 200 μM; read-out: Percentage inhibition of PI3K activity, δ
T1 construct: purchased Invitrogen, USA
T1 sequence (O00329 whole entry): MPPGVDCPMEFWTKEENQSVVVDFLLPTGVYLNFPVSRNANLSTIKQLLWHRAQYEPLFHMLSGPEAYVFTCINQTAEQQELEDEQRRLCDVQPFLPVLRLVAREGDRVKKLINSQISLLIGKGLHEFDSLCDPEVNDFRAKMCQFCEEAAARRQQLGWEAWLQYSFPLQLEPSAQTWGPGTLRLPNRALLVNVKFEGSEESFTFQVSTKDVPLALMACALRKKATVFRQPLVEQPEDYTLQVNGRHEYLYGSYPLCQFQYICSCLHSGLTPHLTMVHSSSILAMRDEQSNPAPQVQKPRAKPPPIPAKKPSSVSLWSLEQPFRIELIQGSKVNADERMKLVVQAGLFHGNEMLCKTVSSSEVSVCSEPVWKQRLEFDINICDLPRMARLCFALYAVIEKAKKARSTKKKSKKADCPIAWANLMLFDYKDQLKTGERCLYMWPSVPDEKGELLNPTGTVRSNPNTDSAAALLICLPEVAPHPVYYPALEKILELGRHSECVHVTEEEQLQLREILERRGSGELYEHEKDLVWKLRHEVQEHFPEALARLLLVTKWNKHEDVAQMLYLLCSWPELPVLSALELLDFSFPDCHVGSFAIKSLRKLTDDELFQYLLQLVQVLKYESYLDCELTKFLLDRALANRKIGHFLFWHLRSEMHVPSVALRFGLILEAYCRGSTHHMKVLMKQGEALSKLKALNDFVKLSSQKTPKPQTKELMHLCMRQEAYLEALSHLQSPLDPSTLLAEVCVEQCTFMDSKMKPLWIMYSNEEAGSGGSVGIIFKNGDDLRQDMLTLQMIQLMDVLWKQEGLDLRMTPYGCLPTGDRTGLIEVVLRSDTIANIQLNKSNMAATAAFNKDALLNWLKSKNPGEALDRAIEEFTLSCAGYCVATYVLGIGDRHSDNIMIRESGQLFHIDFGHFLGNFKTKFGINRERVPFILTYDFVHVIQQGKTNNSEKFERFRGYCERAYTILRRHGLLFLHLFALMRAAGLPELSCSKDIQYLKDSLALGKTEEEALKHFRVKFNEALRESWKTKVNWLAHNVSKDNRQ
T1 sequence (P27986 whole entry partner): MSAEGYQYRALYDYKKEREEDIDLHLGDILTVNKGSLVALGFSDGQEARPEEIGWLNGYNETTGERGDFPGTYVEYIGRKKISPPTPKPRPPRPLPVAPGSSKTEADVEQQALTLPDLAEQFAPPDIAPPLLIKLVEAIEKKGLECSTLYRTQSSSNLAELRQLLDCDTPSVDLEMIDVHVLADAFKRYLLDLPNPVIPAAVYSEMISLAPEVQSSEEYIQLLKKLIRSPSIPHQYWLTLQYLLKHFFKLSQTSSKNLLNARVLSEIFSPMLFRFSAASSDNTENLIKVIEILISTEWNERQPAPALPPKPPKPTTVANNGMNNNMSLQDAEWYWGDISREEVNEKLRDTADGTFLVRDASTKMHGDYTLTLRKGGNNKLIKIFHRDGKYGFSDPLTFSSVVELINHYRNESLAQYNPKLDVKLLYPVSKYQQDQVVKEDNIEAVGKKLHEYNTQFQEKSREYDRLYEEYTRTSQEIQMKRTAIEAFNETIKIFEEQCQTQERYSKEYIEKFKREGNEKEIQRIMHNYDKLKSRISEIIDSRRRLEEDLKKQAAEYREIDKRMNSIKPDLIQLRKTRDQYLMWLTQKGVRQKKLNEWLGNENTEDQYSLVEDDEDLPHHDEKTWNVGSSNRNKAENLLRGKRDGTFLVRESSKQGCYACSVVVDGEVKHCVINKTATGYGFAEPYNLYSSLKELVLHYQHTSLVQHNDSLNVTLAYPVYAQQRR
Method: (§1) Inhibition of PI3-Kinase enzymatic activity was determined using a homogeneous time-resolved fluorescence (HTRF) kit from Eurofins. 1 μM of Compounds of present invention were premixed with DMSO. The experiment was initiated by mixing 1.0% DMSO as vehicle/compounds with purified recombinant human PI3K enzyme {δ (50 ng/well); γ (100 ng/well)} (Invitrogen, USA) and substrate (PIP2, 10 μM) in the wells and incubation for 15 min at room temperature. There after ATP was added (δ at 200 μM, and γ at 50 μM) in to the wells containing reaction mixture, followed by re-incubation for 30 minutes at room temperature. Reaction was terminated by addition of a stopping solution and was further incubated for 4 hours at room temperature before reading using Envision multimode reader (Perkin Elmer). Percentage inhibition of PI3K activity was calculated by determining ratio of specific europium 665 nm energy transfer signal to reference 615 nm signals.

[2] = target: T2, purified recombinant human PI3K enzyme γ (Homo sapiens, UniProt P48736); assay: Inhibition of PI3-Kinase enzymatic activity (HTRF enzyme assay), γ; assay type: biochemical; conditions: 1 μM compound; PI3K γ 100 ng/well; PIP2 10 μM; ATP 50 μM; read-out: Percentage inhibition of PI3K activity, γ
T2 construct: purchased Invitrogen, USA
T2 sequence (P48736 whole entry): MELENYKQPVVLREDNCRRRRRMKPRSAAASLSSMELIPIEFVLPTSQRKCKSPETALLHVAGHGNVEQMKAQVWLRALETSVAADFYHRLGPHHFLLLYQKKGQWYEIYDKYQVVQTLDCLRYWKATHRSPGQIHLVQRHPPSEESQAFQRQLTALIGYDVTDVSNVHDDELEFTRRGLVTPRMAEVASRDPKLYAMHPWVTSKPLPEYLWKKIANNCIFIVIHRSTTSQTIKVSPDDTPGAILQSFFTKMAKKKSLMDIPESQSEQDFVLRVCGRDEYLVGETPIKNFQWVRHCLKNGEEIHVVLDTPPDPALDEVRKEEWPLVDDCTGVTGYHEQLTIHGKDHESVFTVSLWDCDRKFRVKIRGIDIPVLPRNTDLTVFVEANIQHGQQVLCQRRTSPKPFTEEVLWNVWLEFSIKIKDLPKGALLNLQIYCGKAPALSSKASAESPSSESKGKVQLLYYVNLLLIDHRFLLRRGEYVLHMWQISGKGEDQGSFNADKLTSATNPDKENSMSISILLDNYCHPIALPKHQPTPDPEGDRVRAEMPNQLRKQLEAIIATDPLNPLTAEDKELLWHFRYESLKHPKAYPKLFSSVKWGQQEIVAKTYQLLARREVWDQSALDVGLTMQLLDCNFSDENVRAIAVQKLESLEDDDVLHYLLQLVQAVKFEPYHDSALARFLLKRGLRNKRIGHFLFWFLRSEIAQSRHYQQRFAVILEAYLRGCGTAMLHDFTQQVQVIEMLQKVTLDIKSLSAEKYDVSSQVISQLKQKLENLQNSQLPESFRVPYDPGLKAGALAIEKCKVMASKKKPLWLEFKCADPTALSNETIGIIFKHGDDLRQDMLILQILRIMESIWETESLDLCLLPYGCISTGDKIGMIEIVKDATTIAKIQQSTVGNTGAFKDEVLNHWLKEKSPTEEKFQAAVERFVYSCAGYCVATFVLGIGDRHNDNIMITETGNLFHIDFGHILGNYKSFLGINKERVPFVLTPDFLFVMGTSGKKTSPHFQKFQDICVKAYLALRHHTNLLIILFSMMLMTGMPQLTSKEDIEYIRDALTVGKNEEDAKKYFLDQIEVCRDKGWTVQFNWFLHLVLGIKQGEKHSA
Method: as §1

SMILES	inhibition at 1 µM [1]	inhibition at 1 µM [2]
CC1(C)Cc2c(-c3nn(Cc4nc5cccc(Cl)c5c(=O)n4C4(c5ccccc5)CC4)c4ncnc(N)c34)ccc(O)c2O1 [compound 5, 2-{[4-amino-3-(7-hydroxy-2,2-dimethyl-2,3-dihydro-1-benzofuran-4-yl)-1H-pyrazolo[3,4-d]pyrimidin-1-yl]methyl}-5-chloro-3-(1-phenylcyclopropyl)quinazolin-4(3H)-one]	80 to 100%	80 to 100%
Cc1ccc(C)n1-n1c(Cn2nc(-c3ccc(O)c4c3CC(C)(C)O4)c3c(N)ncnc32)nc2cccc(C#Cc3cncn3C)c2c1=O [compound 67, 2-{[4-amino-3-(7-hydroxy-2,2-dimethyl-2,3-dihydro-1-benzofuran-4-yl)-1H-pyrazolo[3,4-d]pyrimidin-1-yl]methyl}-3-(2,5-dimethyl-1H-pyrrol-1-yl)-5-[(1-methyl-1H-imidazol-5-yl)ethynyl]quinazolin-4(3H)-one]	80 to 100%	< 20%
Cn1cccc1-c1cccc2nc(Cn3nc(-c4ccc(O)c5c4CC(C)(C)O5)c4c(N)ncnc43)n(C3(c4ccsc4)CC3)c(=O)c12 [compound 75, 2-{[4-amino-3-(7-hydroxy-2,2-dimethyl-2,3-dihydro-1-benzofuran-4-yl)-1H-pyrazolo[3,4-d]pyrimidin-1-yl]methyl}-5-(1-methyl-1H-pyrrol-2-yl)-3-[1-(thiophen-3-yl)cyclopropyl]quinazolin-4(3H)-one]	80 to 100%	80 to 100%
Cc1ccc(-c2cccc3nc(Cn4nc(-c5ccc(O)c6c5CC(C)(C)O6)c5c(N)ncnc54)n(-n4cccc4)c(=O)c23)o1 [compound 15, 2-{[4-amino-3-(7-hydroxy-2,2-dimethyl-2,3-dihydro-1-benzofuran-4-yl)-1H-pyrazolo[3,4-d]pyrimidin-1-yl]methyl}-5-(5-methylfuran-2-yl)-3-(1H-pyrrol-1-yl)quinazolin-4(3H)-one]	80 to 100%	80 to 100%
CC1(C)Cc2c(-c3nn(Cc4nc5cccc(-c6ccoc6)c5c(=O)n4-n4cccc4)c4ncnc(N)c34)ccc(O)c2O1 [compound 23, 2-{[4-amino-3-(7-hydroxy-2,2-dimethyl-2,3-dihydro-1-benzofuran-4-yl)-1H-pyrazolo[3,4-d]pyrimidin-1-yl]methyl}-5-(furan-3-yl)-3-(1H-pyrrol-1-yl)quinazolin-4(3H)-one]	80 to 100%	80 to 100%
CC1(C)Cc2c(-c3nn(Cc4nc5cccc(C#CCO)c5c(=O)n4-n4cccc4)c4ncnc(N)c34)ccc(O)c2O1 [compound 19, 2-{[4-amino-3-(7-hydroxy-2,2-dimethyl-2,3-dihydro-1-benzofuran-4-yl)-1H-pyrazolo[3,4-d]pyrimidin-1-yl]methyl}-5-(3-hydroxyprop-1-yn-1-yl)-3-(1H-pyrrol-1-yl)quinazolin-4(3H)-one]	80 to 100%	80 to 100%
C#Cc1cccc2nc(Cn3nc(-c4ccc(O)c5c4CC(C)(C)O5)c4c(N)ncnc43)n(-n3cccc3)c(=O)c12 [compound 20, 2-{[4-amino-3-(7-hydroxy-2,2-dimethyl-2,3-dihydro-1-benzofuran-4-yl)-1H-pyrazolo[3,4-d]pyrimidin-1-yl]methyl}-5-ethynyl-3-(1H-pyrrol-1-yl)quinazolin-4(3H)-one]	80 to 100%	80 to 100%
CC1(C)Cc2c(-c3nn(Cc4nc5cccc(C#CCN6CCNC(=O)C6)c5c(=O)n4-n4cccc4)c4ncnc(N)c34)ccc(O)c2O1 [compound 58, 2-{[4-amino-3-(7-hydroxy-2,2-dimethyl-2,3-dihydro-1-benzofuran-4-yl)-1H-pyrazolo[3,4-d]pyrimidin-1-yl]methyl}-5-[3-(3-oxopiperazin-1-yl)prop-1-yn-1-yl]-3-(1H-pyrrol-1-yl)quinazolin-4(3H)-one]	80 to 100%	80 to 100%
CC1(C)Cc2c(-c3nn(Cc4nc5cccc(Cl)c5c(=O)n4-n4cc5ccccc5n4)c4ncnc(N)c34)ccc(O)c2O1 [Compound No. 4, 2-{[4-amino-3-(7-hydroxy-2,2-dimethyl-2,3-dihydro-1-benzofuran-4-yl)-1H-pyrazolo[3,4-d]pyrimidin-1-yl]methyl}-5-chloro-3-(2H-indazol-2-yl)quinazolin-4(3H)-one]	80 to 100%	40 to 60%
CC1(C)Cc2c(-c3nn(Cc4nc5cccc(-c6ccsc6)c5c(=O)n4C4(c5ccccc5)CC4)c4ncnc(N)c34)ccc(O)c2O1 [compound 25, 2-{[4-amino-3-(7-hydroxy-2,2-dimethyl-2,3-dihydro-1-benzofuran-4-yl)-1H-pyrazolo[3,4-d]pyrimidin-1-yl]methyl}-3-(1-phenylcyclopropyl)-5-(thiophen-3-yl)quinazolin-4(3H)-one]	80 to 100%	80 to 100%
Cc1ccc(C)n1-n1c(Cn2nc(-c3ccc(O)c4c3CC(C)(C)O4)c3c(N)ncnc32)nc2cccc(-c3cccn3C)c2c1=O [compound 77, 2-{[4-amino-3-(7-hydroxy-2,2-dimethyl-2,3-dihydro-1-benzofuran-4-yl)-1H-pyrazolo[3,4-d]pyrimidin-1-yl]methyl}-3-(2,5-dimethyl-1H-pyrrol-1-yl)-5-(1-methyl-1H-pyrrol-2-yl)quinazolin-4(3H)-one]	80 to 100%	80 to 100%
CC1(C)Cc2c(-c3nn(Cc4nc5cccc(Cl)c5c(=O)n4-n4cccn4)c4ncnc(N)c34)ccc(O)c2O1 [compound 6, 2-{[4-amino-3-(7-hydroxy-2,2-dimethyl-2,3-dihydro-1-benzofuran-4-yl)-1H-pyrazolo[3,4-d]pyrimidin-1-yl]methyl}-5-chloro-3-(1H-pyrazol-1-yl)quinazolin-4(3H)-one]	80 to 100%	60 to 80%
Cc1cccc(C2(n3c(Cn4nc(-c5ccc(O)c6c5CC(C)(C)O6)c5c(N)ncnc54)nc4cccc(-c5ccnn5C)c4c3=O)CC2)c1 [compound 33, 2-{[4-amino-3-(7-hydroxy-2,2-dimethyl-2,3-dihydro-1-benzofuran-4-yl)-1H-pyrazolo[3,4-d]pyrimidin-1-yl]methyl}-3-[1-(3-methylphenyl)cyclopropyl]-5-(1-methyl-1H-pyrazol-5-yl)quinazolin-4(3H)-one]	80 to 100%	60 to 80%
CCn1cc(-c2cccc3nc(Cn4nc(-c5ccc(O)c6c5CC(C)(C)O6)c5c(N)ncnc54)n(-n4c(C)ccc4C)c(=O)c23)cn1 [compound 85, 2-{[4-amino-3-(7-hydroxy-2,2-dimethyl-2,3-dihydro-1-benzofuran-4-yl)-1H-pyrazolo[3,4-d]pyrimidin-1-yl]methyl}-3-(2,5-dimethyl-1H-pyrrol-1-yl)-5-(1-ethyl-1H-pyrazol-4-yl)quinazolin-4(3H)-one]	80 to 100%	80 to 100%
Nc1ncnc2c1c(-c1ccc(O)c3c1CCC3)nn2Cc1nc2cccc(Cl)c2c(=O)n1-n1cccc1 [compound 1, 2-{[4-amino-3-(7-hydroxy-2,3-dihydro-1H-inden-4-yl)-1H-pyrazolo[3,4-d]pyrimidin-1-yl]methyl}-5-chloro-3-(1H-pyrrol-1-yl)quinazolin-4(3H)-one]	80 to 100%	80 to 100%
Cn1nccc1-c1cccc2nc(Cn3nc(-c4ccc(O)c5c4CC(C)(C)O5)c4c(N)ncnc43)n(-n3cccc3)c(=O)c12 [compound 22, 2-{[4-amino-3-(7-hydroxy-2,2-dimethyl-2,3-dihydro-1-benzofuran-4-yl)-1H-pyrazolo[3,4-d]pyrimidin-1-yl]methyl}-5-(1-methyl-1H-pyrazol-5-yl)-3-(1H-pyrrol-1-yl)quinazolin-4(3H)-one]	80 to 100%	60 to 80%
CCn1cc(-c2cccc3nc(Cn4nc(-c5ccc(O)c6c5CC(C)(C)O6)c5c(N)ncnc54)n(-n4cccc4)c(=O)c23)cn1 [compound 45, 2-{[4-amino-3-(7-hydroxy-2,2-dimethyl-2,3-dihydro-1-benzofuran-4-yl)-1H-pyrazolo[3,4-d]pyrimidin-1-yl]methyl}-5-(1-ethyl-1H-pyrazol-4-yl)-3-(1H-pyrrol-1-yl)quinazolin-4(3H)-one]	80 to 100%	60 to 80%
Cc1cccc2nc(Cn3nc(-c4ccc(O)c5c4CC(C)(C)O5)c4c(N)ncnc43)n(C3(c4cccs4)CC3)c(=O)c12 [compound 60, 2-{[4-amino-3-(7-hydroxy-2,2-dimethyl-2,3-dihydro-1-benzofuran-4-yl)-1H-pyrazolo[3,4-d]pyrimidin-1-yl]methyl}-5-methyl-3-[1-(thiophen-2-yl)cyclopropyl]quinazolin-4(3H)-one]	80 to 100%	60 to 80%
CCCn1cc(-c2cccc3nc(Cn4nc(-c5ccc(O)c6c5CC(C)(C)O6)c5c(N)ncnc54)n(-n4c(C)ccc4C)c(=O)c23)cn1 [compound 89, 2-{[4-amino-3-(7-hydroxy-2,2-dimethyl-2,3-dihydro-1-benzofuran-4-yl)-1H-pyrazolo[3,4-d]pyrimidin-1-yl]methyl}-3-(2,5-dimethyl-1H-pyrrol-1-yl)-5-(1-propyl-1H-pyrazol-4-yl)quinazolin-4(3H)-one]	80 to 100%	80 to 100%
